# Experimental data published in patent publication US6916802B2, “Amino ceramide-like compounds and therapeutic methods of use” (Genzyme Corporation, priority 2002, dated 2005).
# Marks after values point to notes of the source that are not given here.
# Legend:
# [1] = test system: GlcCer synthase of MDCK cell homogenates; assay: Inhibition of ceramide glucosyltransferase (GlcCer synthase) of MDCK cell homogenates; type: biochemical, canine; details: for % Inhibition at 80 μM: 80 μM inhibitor
# Description: Assay of sphingolipid enzymes. The inhibitors were evaluated for their effectiveness against the GlcCer synthase of MDCK cell homogenates by incubation in a thermostatted ultrasonic bath (Radin N. S. et al., “Ultrasonic Baths as Substitutes for Shaking Incubator Baths,” Enzyme, 45:67-70 (1991)) with octanoyl sphingosine and uridinediphospho[^3H]glucose (Shukla, G. S. et al., “Glucosylceramide Synthase of Mouse Kidney: Further Characterization and Improved Assay Method,” Arch. Biochem. Biophys., 283:372-378 (1990)). The lipoidal substrate (85 μg) was added in liposomes made from 0.57 mg dioleoylphosphatidylcholine and 0.1 mg of Na sulfatide. Confluent cells were washed, then homogenized with a micro-tip sonicator at 0° C. for 3×30 sec; ˜0.2 mg of protein was used in each assay tube. In the case of the aromatic inhibitors, the test compound was simply evaporated to dryness from solution in the incubation tube. […] The aliphatic inhibitors, which appeared to be less soluble in water, were added as part of the substrate liposomes.
# [2] = test system: MCF-7 breast carcinoma cells; assay: Tumor cell growth in vitro (sulforhodamine B), MCF-7; type: cell-based, human; details: rounded off to one digit, read-out: Inhibition of tumor cell growth in vitro, IC50
# Description: (§1) Growth of cell lines. Comparisons of different inhibitors with regard to suppression of human cancer cell growth were made by the University of Michigan Cancer Center in vitro Drug Evaluation Core Laboratory. MCF-7 breast carcinoma cells, HT-29 colon adenocarcinoma cells, H-460 lung large cell carcinoma cells, and 9L brain gliosarcoma cells were grown in RPMI 1640 medium with 5% fetal bovine serum, 2 mM glutamine, 50 units/ml of penicillin, […] of streptomycin, and 0.1 mg/ml of neomycin. UMSCC-10A head and neck squamous carcinoma cells were grown in minimal essential medium with Earle salts and the same supplements. Medium components were from Sigma Chemical Co. Cells were plated in 96-well microtiter plates (1000 cells/well for H-460 and 9L cells, and 2000 cells/well for the other lines), and the test compounds were added 1 day later. The stock inhibitor solutions, 2 mM in 2 mM BSA, were diluted with different amounts of additional 2 mM BSA, then each solution was diluted 500-fold with growth medium to obtain the final concentrations indicated in the Figures and Tables.
# (§2) Five days after plating the H-460 and 9L cells, or 6 days for the other lines, cell growth was evaluated by staining the adhering cells with sulforhodamine B and measuring the absorbance at 520 nm (Skehan, P. et al., “New Colorimetric Cytotoxicity Assay for Anticancer-Drug Screening,” J. Natl. Cancer Inst., 82:1107-1112 (1990)). The absorbance of the treated cultures is reported as percent of that of control cultures, to provide an estimate of the fraction of the cells that survived, or of inhibition of growth rate.
# [3] = test system: H-460 lung large cell carcinoma cells; assay: Tumor cell growth in vitro (sulforhodamine B), H-460; type: cell-based, human; details: rounded off to one digit, read-out: Inhibition of tumor cell growth in vitro, IC50
# Description: as §1, §2
# [4] = test system: 9L brain gliosarcoma cells; assay: Tumor cell growth in vitro (sulforhodamine B), 9L; type: cell-based; details: 9L; rounded off to one digit; read-out: Inhibition of tumor cell growth in vitro, IC50
# Description: as §1, §2
# [5] = triplicate ± SD, samples partly isomer mixtures
SMILES,"% Inhibition at 80 μM [1, 5]",also measured
CCCCCCCCCCCCCCCC(=O)NC(CN1CCOCC1)C(O)c1ccc(F)cc1 (mixture of isomers) [BML-113],60 ± 4.7^a %,
CCCCCCCCCCCCCCCC(=O)NC(CN(CC)CC)C(O)c1ccccc1 (mixture of isomers) [BML-114],31 ± 2.9^a %,"activity against GlcCer synthase, in words [1]: little or no activity"
CCCCCCCCCCCCCCCC(=O)NC(CN1CCCCCC1)C(O)c1ccccc1 (mixture of isomers) [BML-116],28 ± 3.2^a %,
CCCCCCCCCC(=O)NC(CN1CCOCC1)C(O)c1ccc(F)cc1 (mixture of isomers) [BML-117],35 ± 0.6^b %,
CCCCCCCCCCCCCCCC(=O)NC(CN1CCCCC1)C(O)c1ccc(F)cc1 (mixture of isomers) [BML-118],62 ± 0.4^b %,"Inhibition at 5 μM ([1]; 5 μM inhibitor, triplicate ± SD, samples partly isomer mixtures): 8.3 ± 1.4^f %; IC50 [2]: 2000 nM; IC50 [3]: 2000 nM; IC50 [4]: 2000 nM"
CCCCCCCCCCCCCCCC(=O)NC(CN1CCN(C)CC1)C(O)c1ccccc1 (mixture of isomers) [BML-120],11 ± 3.0^c %,
CCCCCCCCCCCCCCCC(=O)NC(CN1CCCC(N(C)C)C1)C(O)c1ccccc1 (mixture of isomers) [BML-121],11 ± 0.4^c %,
CCCCCCCCCCCCCCCC(=O)NC(CN(C)CCO)C(O)c1ccccc1 (mixture of isomers) [BML-122],58 ± 1.6^d %,
CCCCCCCCCCCCCCCC(=O)NC(CN)C(O)c1ccccc1 (mixture of isomers) [BML-124],−2 ± 1.6^d %,"activity against GlcCer synthase, in words [1]: little or no activity"
